Measured values taken from ChEMBL document CHEMBL4270635, “HDAC3 is a potential validated target for cancer: An overview on the benzamide-based selective HDAC3 inhibitors through comparative SAR/QSAR/QAAR approaches” (Eur J Med Chem, 2018).

Experiments:
[1] = target: T1, Histone deacetylase 3/Nuclear receptor corepressor 2 (HDAC3/NCoR2) (Homo sapiens, UniProt O15379); experiment: Inhibition of full length human C-terminal His-tagged HDAC3/N-terminal GST-tagged NCOR2 (395 to 489 residues) co-expressed in baculovirus infected sf9 cells using (FAM)-labeled acetylated peptide substrate after 60 mins by caliper microfluidic mobility shift assay
[2] = target: T1, Histone deacetylase 3/Nuclear receptor corepressor 2 (HDAC3/NCoR2); experiment: biochemical; type: cell-based
Description: Inhibition of His6-tagged HDAC3/SMRT (395 to 489 residues) (unknown origin) co-expressed in baculovirus infected sf9 cells using (FAM)-labeled acetylated peptide substrate after 17 hrs by caliper microfluidic mobility shift assay

Histone deacetylase 3 = Histone deacetylase 3 (Homo sapiens, UniProt O15379); experiment: Inhibition of HDAC3 (unknown origin)
Homo sapiens [3] = organism: Homo sapiens; experiment: Selectivity ratio of IC50 for HDAC1 (unknown origin) to IC50 for HDAC3 (unknown origin)
Homo sapiens [4] = organism: Homo sapiens; experiment: Selectivity ratio of IC50 for HDAC2 (unknown origin) to IC50 for HDAC3 (unknown origin)
Homo sapiens [5] = organism: Homo sapiens; experiment: Selectivity ratio of IC50 for HDAC4 (unknown origin) to IC50 for HDAC3 (unknown origin)
Homo sapiens [6] = organism: Homo sapiens; experiment: Selectivity ratio of IC50 for HDAC6 (unknown origin) to IC50 for HDAC3 (unknown origin)
Homo sapiens [7] = organism: Homo sapiens; experiment: Selectivity ratio of IC50 for HDAC7 (unknown origin) to IC50 for HDAC3 (unknown origin)
Homo sapiens [8] = organism: Homo sapiens; experiment: Selectivity ratio of IC50 for HDAC8 (unknown origin) to IC50 for HDAC3 (unknown origin)

T1 sequence (O15379 whole entry, the tested form may be a part): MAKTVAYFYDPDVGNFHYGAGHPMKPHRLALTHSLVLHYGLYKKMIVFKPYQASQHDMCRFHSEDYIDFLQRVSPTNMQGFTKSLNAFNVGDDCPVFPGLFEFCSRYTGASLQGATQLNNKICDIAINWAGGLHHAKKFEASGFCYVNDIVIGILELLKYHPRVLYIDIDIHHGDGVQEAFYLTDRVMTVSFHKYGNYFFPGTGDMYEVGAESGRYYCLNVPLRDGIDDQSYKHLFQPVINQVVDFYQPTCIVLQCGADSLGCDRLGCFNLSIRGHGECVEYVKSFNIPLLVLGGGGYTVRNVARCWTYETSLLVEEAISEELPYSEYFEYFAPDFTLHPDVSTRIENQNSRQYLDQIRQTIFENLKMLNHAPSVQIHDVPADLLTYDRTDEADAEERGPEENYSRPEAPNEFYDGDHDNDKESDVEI
T1 sequence (Q9Y618 whole entry, further chain, the tested form may be a part): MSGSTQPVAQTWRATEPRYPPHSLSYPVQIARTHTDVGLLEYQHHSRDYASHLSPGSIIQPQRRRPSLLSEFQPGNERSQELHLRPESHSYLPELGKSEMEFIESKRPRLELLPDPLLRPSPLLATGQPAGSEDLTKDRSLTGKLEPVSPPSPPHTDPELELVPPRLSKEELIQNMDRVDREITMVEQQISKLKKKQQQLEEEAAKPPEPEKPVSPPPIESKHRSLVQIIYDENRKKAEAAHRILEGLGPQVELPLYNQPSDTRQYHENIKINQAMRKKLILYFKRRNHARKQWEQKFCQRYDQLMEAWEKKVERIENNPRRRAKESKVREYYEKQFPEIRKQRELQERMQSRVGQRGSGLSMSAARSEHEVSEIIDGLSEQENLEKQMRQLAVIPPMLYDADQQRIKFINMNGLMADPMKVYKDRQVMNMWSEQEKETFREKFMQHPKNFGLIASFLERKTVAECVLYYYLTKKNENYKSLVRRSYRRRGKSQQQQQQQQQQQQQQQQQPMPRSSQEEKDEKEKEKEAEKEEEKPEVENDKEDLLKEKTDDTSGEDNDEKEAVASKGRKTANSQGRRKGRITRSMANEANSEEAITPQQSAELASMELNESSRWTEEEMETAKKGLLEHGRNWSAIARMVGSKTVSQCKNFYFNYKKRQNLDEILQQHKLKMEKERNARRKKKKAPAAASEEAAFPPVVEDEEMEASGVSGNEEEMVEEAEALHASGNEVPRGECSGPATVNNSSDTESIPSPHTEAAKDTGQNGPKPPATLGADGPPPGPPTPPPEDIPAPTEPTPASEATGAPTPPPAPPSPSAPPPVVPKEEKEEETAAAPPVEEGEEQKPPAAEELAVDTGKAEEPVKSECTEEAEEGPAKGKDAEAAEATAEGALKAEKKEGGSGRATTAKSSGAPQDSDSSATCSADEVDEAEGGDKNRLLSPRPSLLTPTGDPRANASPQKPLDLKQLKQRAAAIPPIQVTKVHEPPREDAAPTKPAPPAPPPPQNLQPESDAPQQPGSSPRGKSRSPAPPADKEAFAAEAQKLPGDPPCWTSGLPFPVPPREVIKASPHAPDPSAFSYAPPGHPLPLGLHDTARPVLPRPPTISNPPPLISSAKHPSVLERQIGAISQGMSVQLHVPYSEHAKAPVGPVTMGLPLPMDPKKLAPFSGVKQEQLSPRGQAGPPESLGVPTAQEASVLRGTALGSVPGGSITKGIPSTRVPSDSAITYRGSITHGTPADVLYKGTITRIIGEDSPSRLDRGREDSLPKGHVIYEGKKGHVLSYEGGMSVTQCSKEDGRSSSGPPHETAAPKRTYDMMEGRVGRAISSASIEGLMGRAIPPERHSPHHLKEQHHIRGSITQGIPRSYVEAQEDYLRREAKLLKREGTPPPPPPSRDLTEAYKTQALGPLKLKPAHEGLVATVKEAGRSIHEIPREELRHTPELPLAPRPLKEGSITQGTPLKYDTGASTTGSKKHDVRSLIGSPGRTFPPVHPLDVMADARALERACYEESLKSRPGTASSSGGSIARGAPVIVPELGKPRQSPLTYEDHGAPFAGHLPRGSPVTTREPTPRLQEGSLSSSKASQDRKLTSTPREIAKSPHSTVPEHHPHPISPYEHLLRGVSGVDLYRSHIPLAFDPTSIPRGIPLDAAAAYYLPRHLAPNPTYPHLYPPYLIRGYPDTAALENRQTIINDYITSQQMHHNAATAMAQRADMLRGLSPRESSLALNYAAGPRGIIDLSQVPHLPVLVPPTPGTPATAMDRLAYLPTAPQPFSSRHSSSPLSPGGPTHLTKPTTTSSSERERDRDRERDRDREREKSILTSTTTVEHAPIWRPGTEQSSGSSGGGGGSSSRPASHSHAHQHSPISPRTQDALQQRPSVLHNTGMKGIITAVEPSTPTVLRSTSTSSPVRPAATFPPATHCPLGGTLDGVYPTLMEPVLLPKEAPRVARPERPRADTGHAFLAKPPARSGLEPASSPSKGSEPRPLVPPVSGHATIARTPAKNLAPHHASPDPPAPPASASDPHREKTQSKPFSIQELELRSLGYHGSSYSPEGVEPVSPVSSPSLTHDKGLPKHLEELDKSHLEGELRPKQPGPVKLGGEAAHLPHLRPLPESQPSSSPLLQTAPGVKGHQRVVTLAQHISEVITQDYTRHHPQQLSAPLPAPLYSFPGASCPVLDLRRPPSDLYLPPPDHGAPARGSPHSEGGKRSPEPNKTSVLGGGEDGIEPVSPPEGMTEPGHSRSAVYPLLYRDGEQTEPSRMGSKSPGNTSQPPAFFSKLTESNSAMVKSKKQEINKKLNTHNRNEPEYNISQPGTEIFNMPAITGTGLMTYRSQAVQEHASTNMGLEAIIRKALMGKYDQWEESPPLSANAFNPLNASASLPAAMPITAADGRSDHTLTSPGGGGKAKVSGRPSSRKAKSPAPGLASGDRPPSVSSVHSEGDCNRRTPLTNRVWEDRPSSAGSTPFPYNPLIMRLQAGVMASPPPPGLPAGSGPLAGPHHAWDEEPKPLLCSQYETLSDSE
Chain of Histone deacetylase 3 (O15379 whole entry): as the sequence (O15379 whole entry, the tested form may be a part) above

IC50 [1]	IC50 [2]	SMILES	further results
300 to 1700 nM		CC(C)[C@@H](C(=O)Nc1ccc(C(=O)Nc2ccc(F)cc2N)cc1)c1ccccc1	
210 to 579 nM		C[C@@H](C(=O)Nc1ccc(C(=O)Nc2ccc(F)cc2N)cc1)c1ccccc1	
110 to 530 nM		CC[C@H](C(=O)Nc1ccc(C(=O)Nc2ccc(F)cc2N)cc1)c1ccccc1	
80 nM		CC(C)[C@H](C(=O)Nc1ccc(C(=O)Nc2ccc(F)cc2N)cc1)c1ccccc1	
60 to 170 nM		CC[C@@H](C(=O)Nc1ccc(C(=O)Nc2ccc(F)cc2N)cc1)c1ccccc1	
130 to 230 nM		C[C@H](C(=O)Nc1ccc(C(=O)Nc2ccc(F)cc2N)cc1)c1ccccc1	

The next lines start with the molecule.

SMILES	IC50 [1]	IC50 [2]	further results
CC(=O)Nc1cccc(-c2csc(NC(=O)CCCCCCC(=O)Nc3ccccc3N)n2)c1		30 nM	
Nc1cccc(-c2csc(NC(=O)CCCCCCC(=O)Nc3ccccc3N)n2)c1		60.3 nM	
C=C1CN(Cc2ccc(C(=O)Nc3ccccc3N)cc2)C(=O)c2ccccc21			IC50 (Histone deacetylase 3): 16 nM; Ratio IC50 (Homo sapiens [3]): 2; Ratio IC50 (Homo sapiens [4]): 2; Ratio IC50 (Homo sapiens [5]): 2; Ratio IC50 (Homo sapiens [6]): 2; Ratio IC50 (Homo sapiens [7]): 2; Ratio IC50 (Homo sapiens [8]): 2
CCOC(=O)Nc1cccc(-c2csc(NC(=O)CCCCCCC(=O)Nc3ccccc3N)n2)c1		60 nM	
Nc1cc(F)ccc1NC(=O)c1ccc(NC(=O)C2(c3ccccc3)CC2)cc1	200 nM		
CC(C)(C)OC(=O)Nc1cccc(-c2csc(NC(=O)CCCCCCC(=O)Nc3ccccc3N)n2)c1		160 nM	
Nc1ccccc1NC(=O)CCCCCCC(=O)NO		21.1 nM	
Nc1ccccc1NC(=O)CCCCCCC(=O)NOCc1ccccc1		552 nM	
Nc1cc(F)ccc1NC(=O)c1ccc(NC(=O)C2(c3ccccc3)CC2)cn1	1000 nM		
Nc1ccccc1NC(=O)CCCCCCC(=O)Nc1ccc(-c2cn(Cc3ccccc3)nn2)cc1		1500 nM	
CC(=O)Nc1ccc(C(=O)Nc2ccc(F)cc2N)cc1			Ratio IC50 (Homo sapiens [3]): 17; Ratio IC50 (Homo sapiens [4]): 17
